Results on 1 compound are retold here after paper PMC6722837, “Multiple Modulation of Acid-Sensing Ion Channel 1a by the Alkaloid Daurisoline” (Biomolecules, 2019).

The target of this experiment is T1, ASIC1a (acid-sensing ion channel 1a) (Rattus norvegicus, UniProt P55926).
T1 construct: gene Asic1; rat ASIC1a isoform expressed in Xenopus laevis oocytes
T1 sequence (P55926 1-526): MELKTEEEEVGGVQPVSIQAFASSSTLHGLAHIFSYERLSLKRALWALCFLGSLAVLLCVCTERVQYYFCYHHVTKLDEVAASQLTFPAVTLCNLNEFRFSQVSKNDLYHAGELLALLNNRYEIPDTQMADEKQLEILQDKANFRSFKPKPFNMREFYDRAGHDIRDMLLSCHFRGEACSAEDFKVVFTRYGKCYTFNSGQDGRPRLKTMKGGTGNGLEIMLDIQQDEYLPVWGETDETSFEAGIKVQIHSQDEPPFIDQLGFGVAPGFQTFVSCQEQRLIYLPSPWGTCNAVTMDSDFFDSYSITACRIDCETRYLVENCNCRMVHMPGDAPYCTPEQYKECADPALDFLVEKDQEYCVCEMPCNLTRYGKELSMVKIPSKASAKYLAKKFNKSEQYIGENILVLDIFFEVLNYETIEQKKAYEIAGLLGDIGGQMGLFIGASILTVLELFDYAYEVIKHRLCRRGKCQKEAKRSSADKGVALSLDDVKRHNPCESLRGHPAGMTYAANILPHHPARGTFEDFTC
As to the kind of experiment: two-electrode voltage clamp in Xenopus oocytes; second peak of the pH […].5-evoked current at conditioning pH […]. It counts as cell-based. In general terms: Two-electrode voltage clamp is typically applied to oocytes expressing channels or transporters.

Compound `COc1cc2c(cc1O)[C@@H](Cc1ccc(O)c(Oc3ccc(C[C@@H]4c5cc(OC)c(OC)cc5CCN4C)cc3)c1)N(C)CC2` [DAU, daurisoline] displayed an EC50 of 23 ± 3 µM.

As usually defined, the EC50 is the midpoint of the concentration-response curve. High values mean a need for much substance, low ones an effect from little substance.
